From patent US20230339937A1, “CONDENSED RING COMPOUNDS THAT INHIBIT H-PGDS” (SATO PHARMACEUTICAL CO., LTD., priority 2020, published 2023)

Target: T1, Recombinant human H-PGDS (Homo sapiens, UniProt O60760)
T1 construct: made in house; host or cells: E. coli
Assay: H-PGDS inhibitory activity (prostaglandin D2 production from prostaglandin H2, measured by LC-MS/MS)
Format: biochemical
Conditions: recombinant human H-PGDS 1.0 nM expressed in E. coli; prostaglandin H2 25 μM; preincubated 15 minutes on ice, reacted on ice for 1 minute; concentration that inhibits prostaglandin D2 production by 50%
Summary of the method: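 PGD2 formed from 25 µM prostaglandin H2 during a 1-min on-ice reaction was measured by LC-MS/MS after an FeCl2/citric acid stop. The enzyme was 1.0 nM E. coli-expressed human H-PGDS in Tris-HCl pH 8.0 buffer with MgCl2, reduced glutathione and γ-globulin, preincubated with compound for 15 min on ice. Production was normalised to DMSO controls minus the no-enzyme background.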

T1 sequence (O60760 whole entry): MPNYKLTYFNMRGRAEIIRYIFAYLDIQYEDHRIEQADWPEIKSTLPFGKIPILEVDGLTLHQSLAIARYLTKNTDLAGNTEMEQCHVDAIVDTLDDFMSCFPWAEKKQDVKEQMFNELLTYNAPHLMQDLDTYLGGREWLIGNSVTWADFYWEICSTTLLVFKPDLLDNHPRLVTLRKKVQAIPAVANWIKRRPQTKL

SMILES	IC50 [nM]
O=C(NC1CCN(c2ccc(Cl)nn2)CC1)c1ccc(-c2nccc3occc23)cc1 [Example 148, N-[1-(6-chloropyridazin-3-yl)piperidin-4-yl]-4-(furo[3,2-c]pyridin-4-yl)benzamide]	1.8
O=C(NC1CCN(c2ccc(F)cn2)CC1)c1ccc(-c2nccc3occc23)cc1 [Example 149, N-[1-(5-fluoropyridin-2-yl)piperidin-4-yl]-4-(furo[3,2-c]pyridin-4-yl)benzamide]	1.8
CCn1nnnc1N1CC[C@H](NC(=O)c2ccc(-c3nccc4occc34)cc2)C1 [Example 232, (S)-4-(furo[3,2-c]pyridin-4-yl)-N-[1-(1-ethyl-1H-tetrazol-5-yl)pyrrolidin-3-yl]benzamide]	2
C[C@]1(O)CC[C@H](NC(=O)c2ccc(-c3nccc4occc34)cc2)CC1 [Example 259, 4-(furo[3,2-c]pyridin-4-yl)-N-(trans-4-hydroxy-4-methylcyclohexyl)benzamide]	2
O=C(Nc1ccccc1)c1ccc(-c2nccc3[nH]ccc23)cc1 [Example 16, N-phenyl-4-(1H-pyrrolo[3,2-c]pyridin-4-yl)benzamide]	1.1
CC(C)(O)[C@H]1CC[C@H](NC(=O)c2ccc(-c3nccc4occc34)cc2F)CC1 [Example 126, 2-fluoro-4-(furo[3,2-c]pyridin-4-yl)-N-[trans-4-(2-hydroxypropan-2-yl)cyclohexyl]benzamide]	13
CC(=O)N[C@H]1CC[C@H](NC(=O)c2ccc(-c3nccc4occc34)cc2)CC1 [Example 296, N-(trans-4-acetamidocyclohexyl)-4-(furo[3,2-c]pyridin-4-yl)benzamide]	2.9
Cc1cc2occc2c(-c2ccc(C(=O)N[C@H]3CC[C@H](NCC(F)F)CC3)cc2)n1 [Example 331, N-{trans-4-[(2,2-difluoroethyl)amino]cyclohexyl}-4-(6-methylfuro[3,2-c]pyridin-4-yl)benzamide]	1.8
N#Cc1cnc(N2CCC(NC(=O)c3ccc(-c4nccc5occc45)cc3)CC2)nc1 [Example 173, N-[1-(5-cyanopyrimidin-2-yl)piperidin-4-yl]-4-(furo[3,2-c]pyridin-4-yl)benzamide]	0.83
CC(O)CNC(=O)c1ccc(-c2nccc3sccc23)cc1 (centres unmarked) [Example 61, N-(2-hydroxypropyl)-4-(thieno[3,2-c]pyridin-4-yl)benzamide]	31
O=C(N[C@H]1CCCC[C@@H]1O)c1ccc(-c2nccc3occc23)cc1 (relative stereo) [Example 274, 4-(furo[3,2-c]pyridin-4-yl)-N-(trans-2-hydroxycyclohexyl)benzamide]	13
C[C@]1(O)CC[C@H](NC(=O)c2ccc(-c3nccc4occc34)c(F)c2)CC1 [Example 346, 3-fluoro-4-(furo[3,2-c]pyridin-4-yl)-N-(trans-4-hydroxy-4-methylcyclohexyl)benzamide]	2
O=C(NCC(O)CO)c1ccc(-c2nccc3[nH]ccc23)cc1 (centres unmarked) [Example 34, N-(2,3-dihydroxypropyl)-4-(1H-pyrrolo[3,2-c]pyridin-4-yl)benzamide]	2.4
O=C(Nc1ccc(N2CCC(C(=O)N3CCOCC3)CC2)cc1)c1ccc(-c2nccc3occc23)cc1 [Example 222, 4-(furo[3,2-c]pyridin-4-yl)-N-(4-[4-(morpholine-4-carbonyl)piperidin-1-yl]phenyl)benzamide]	2.3
O=C(Nc1cccnc1)c1ccc(-c2nccc3occc23)cc1 [Example 103, 4-(furo[3,2-c]pyridin-4-yl)-N-(pyridin-3-yl)benzamide]	2.1
O=C(NCc1ccc(Cl)cc1)c1ccc(-c2nccc3[nH]ccc23)cc1 [Example 58, N-(4-chlorobenzyl)-4-(1H-pyrrolo[3,2-c]pyridin-4-yl)benzamide]	0.64
Cc1cc2occc2c(-c2ccc(C(=O)NC34CCC(O)(CC3)CC4)cc2)n1 [Example 343, N-(4-hydroxybicyclo[2.2.2]octan-1-yl)-4-(6-methylfuro[3,2-c]pyridin-4-yl)benzamide]	1.2
